# Laboratory results reported in patent US20190151369A1, “Engineered Stem Cell Therapy for Cardiac Repair” (Emory University, priority 2014, published 2019).
# Where no end group is shown, it is not given here. The star is where a group is joined. Palmitoyl = CCCCCCCCCCCCCCCC(=O)*
# Legend:
# RNVCMs = experiment: Live/Dead assay after H2O2 treatment (simulated ischemic injury in vitro); format: cell-based; settings: H2O2 (200 μM) treatment
# Source text: Since oxidative stress in the ischemic heart is increasingly recognized as a possible cause for poor survival of transplanted cells, whether encapsulation of the CMs with PA-RGDS increases their survival when exposed to the H2O2 simulating ischemic condition in vitro was investigated.
# mouse experimental MI [1] = experiment: Echocardiography (EF, FS) in mouse myocardial infarction model; format: in vivo; settings: up to 4 weeks after MI induction
# Source text: (§1) Myocardial infarction (MI) was induced in mice by ligation of the left anterior descending coronary artery, and cells or other reagents were intramyocardially injected through 30 G needles at two different sites in the border zone of the myocardium immediately after surgery. Mice were randomly assigned into four treatment groups: (i) PBS as a control group, (ii) 2×10^5 mESCs-derived CMs only, (iii) PA-RGDS only, or (iv) 2×10^5 mESCs-derived CMs encapsulated with PA-RGDS. Due to the limiting factor of murine heart size and the requirement to deliver a large quantity of cells, only one concentration ratio of PA […] to cells was used for the studies. All CMs were obtained from the same differentiation batch and prelabeled with CM-DiI (red fluorescence) before cell injection for cell tracking in histology.
# Next, the therapeutic effects of treatments with CM only, PA-RGDS only and mESC-CMs with PA-RGDS, comparing with PBS control in ischemic myocardium in mice was investigated. Echocardiography was performed regularly to measure cardiac remodeling and function (FIG. 6A).
# Prior studies reported that the beneficial effects from treatment with various types of stem cells or stem cell derived cells were substantially diminished by 3-4 weeks, mostly due to massive cell death or ejection from the myocardium. […] (FIG. 7A)
# mouse experimental MI [2] = experiment: Scar area by Masson's trichrome staining of infarcted hearts; format: in vivo; settings: 4 weeks after MI induction, N=6
# Source text: as §1
# Masson's Trichrome staining was performed with fixed sections of infarcted hearts to evaluate the extent of scar formation 4 weeks after MI induction.
# [3] = Mechanical properties of self-assembled PA-RGDS gel (storage modulus); format: physicochemical
# Source text: Cardiomyocytes (CMs) derived from pluripotent stem cells (PSCs) including both embryonic stem cells (ESCs) and the induced pluripotent stem cells (iPSCs) are useful for generating new CMs in injured hearts, with PA-RGDS, which addresses low cell survival. The PA-RGDS provides a protective microenvironment for CMs in vivo. An important aspect of the PA-RGDS is the physical properties of the gels, which can be tuned to provide mechanical strength. […] PA-RGDS nanomatrix gels were also observed to be structurally stable with well-defined cylindrical shape and increased durability for handling and transport. This is particularly important for early cell survival, as cardiac tissue scaffolds require enough mechanical strength to resist the cardiac cycle, but enough flexibility to allow the contractile function of implanted CMs. The mechanical strength of PA-RGDS can be tuned for the application.
substance,measurement,setting,value
"CH3(CH2)14CONH-GTAGLIGQ-RGDS (Palmitoyl-GTAGLIGQRGDS) [PA-RGDS, gels made 1:1 with PA-S]",Live cells (Live/Dead assay) after H2O2,RNVCMs,increased cell survival
same,Cardiac function (EF and FS) by echocardiography,mouse experimental MI [1],dramatically reduced
same,Scar area,mouse experimental MI [2],41.7±4.7%
same,Storage modulus (G′),[3],around 100 Pa
